In US20220218852A1, “NOVEL RADIOLABELLED CXCR4-TARGETING COMPOUNDS FOR DIAGNOSIS AND THERAPY” (PROVINCIAL HEALTH SERVICES AUTHORITY, priority 2019, published 2022):
Positions of bridges follow the written chain, without caps; N, C: chain ends. Non-standard residues stand in square brackets, D forms with d. Residues, ends and D or L forms follow the SMILES beside them. Groups on a side chain read outwards from the residue. *: point of attachment. DOTA = O=C(O)CN1CCN(CC(=O)O)CCN(CC(=O)*)CCN(CC(=O)O)CC1; 2Nal = N[C@@H](Cc1ccc2ccccc2c1)C(=O)O; Lys(iPr) = CC(C)NCCCC[C@H](N)C(=O)O

Key:
Format in all cases: in vivo
[1] = Biodistribution in GRANTA519 tumor-bearing mice; conditions: male, NOD.Cg-Rag1^tm1MomII2rg^tm1Wjl/SzJ (NRG), mouse, iv, total radioactivity, GRANTA519
Method: (§1) For Daudi, Z138, GRANTA519 and Jeko1 xenografts, male NOD.Cg-Rag1^tm1MomII2rg^tm1Wjl/SzJ (NRG) mice were subcutaneously inoculated on the left flank with 5×10^6 cells (100 μL; 1:1 ratio of PBS/Matrigel) and tumors were grown to a size of 200-500 mm^3. For PC-3 xenografts, male NOD.Cg-Rag1^tm1MomII2rg^tm1Wjl/SzJ (NRG) mice were subcutaneously inoculated on the left flank with 5×10^6 PC-3 cells (100 μL; 1:1 ratio of PBS/Matrigel) and tumors were grown to a size of 200-400 mm^3.
(§2) The mice were euthanized via CO2 inhalation while anesthetized with isoflurane. Tissues were harvested, washed in PBS, blotted dry, weighed, and measured on a Hidex AMG Automatic Gamma Counter.

[2] = system: GRANTA519 mantle cell lymphoma xenografts; test: Biodistribution in GRANTA519 tumor-bearing mice; conditions: GRANTA519
Method: as §1, §2

[3] = Biodistribution in Z138 tumor-bearing mice; conditions: male, NOD.Cg-Rag1^tm1MomII2rg^tm1Wjl/SzJ (NRG), mouse, iv, total radioactivity, Z138
Method: as §1, §2

[4] = system: Z138 mantle cell lymphoma xenografts; test: Biodistribution in Z138 tumor-bearing mice; conditions: Z138
Method: as §1, §2

[5] = adrenals, 1 h, read-out: Biodistribution Adrenals
[6] = adrenals, 1 h blocked (7.5 μg LY2510924 i.p.), read-out: Biodistribution Adrenals
[7] = bone, 1 h, read-out: Biodistribution Bone
[8] = bone, 1 h blocked (7.5 μg LY2510924 i.p.), read-out: Biodistribution Bone
[9] = brain, 1 h, read-out: Biodistribution Brain
[10] = brain, 1 h blocked (7.5 μg LY2510924 i.p.), read-out: Biodistribution Brain
[11] = fat, 1 h, read-out: Biodistribution Fat
[12] = fat, 1 h blocked (7.5 μg LY2510924 i.p.), read-out: Biodistribution Fat
[13] = heart, 1 h, read-out: Biodistribution Heart
[14] = heart, 1 h blocked (7.5 μg LY2510924 i.p.), read-out: Biodistribution Heart
[15] = intestine, 1 h, read-out: Biodistribution Intestine
[16] = intestine, 1 h blocked (7.5 μg LY2510924 i.p.), read-out: Biodistribution Intestine
[17] = kidney, 1 h, read-out: Biodistribution Kidney
[18] = kidney, 1 h blocked (7.5 μg LY2510924 i.p.), read-out: Biodistribution Kidney
[19] = liver, 1 h, read-out: Biodistribution Liver
[20] = liver, 1 h blocked (7.5 μg LY2510924 i.p.), read-out: Biodistribution Liver
[21] = lung, 1 h, read-out: Biodistribution Lung
[22] = lung, 1 h blocked (7.5 μg LY2510924 i.p.), read-out: Biodistribution Lung
[23] = muscle, 1 h, read-out: Biodistribution Muscle
[24] = muscle, 1 h blocked (7.5 μg LY2510924 i.p.), read-out: Biodistribution Muscle
[25] = pancreas, 1 h, read-out: Biodistribution Pancreas
[26] = pancreas, 1 h blocked (7.5 μg LY2510924 i.p.), read-out: Biodistribution Pancreas
[27] = spleen, 1 h, read-out: Biodistribution Spleen
[28] = spleen, 1 h blocked (7.5 μg LY2510924 i.p.), read-out: Biodistribution Spleen
[29] = stomach, 1 h, read-out: Biodistribution Stomach
[30] = stomach, 1 h blocked (7.5 μg LY2510924 i.p.), read-out: Biodistribution Stomach
[31] = testes, 1 h, read-out: Biodistribution Testes
[32] = testes, 1 h blocked (7.5 μg LY2510924 i.p.), read-out: Biodistribution Testes
[33] = 1 h blocked (7.5 μg LY2510924 i.p.)

In the case of `CC(C)NCCCC[C@@H]1NC(=O)[C@H](Cc2ccc(O)cc2)NC(=O)[C@H](Cc2ccccc2)NC(=O)CC[C@H](C(=O)N[C@@H](CCCCNC(C)C)C(=O)N[C@@H](CCCCNC(=O)[C@H](CCC(=O)O)NC(=O)[C@H](CCC(=O)O)NC(=O)[C@H](CCC(=O)O)NC(=O)CN2CCN(CC(=O)O)CCN(CC(=O)O)CCN(CC(=O)O)CC2)C(N)=O)NC(=O)CNC(=O)[C@H](Cc2ccc3ccccc3c2)NC(=O)[C@@H](CCCNC(=N)N)NC1=O` [[^68Ga]Ga-BL02, metal not drawn] (FY[Lys(iPr)][dR][2Nal]G[dE][Lys(iPr)]K([Glu-Glu-Glu-DOTA])-NH2; lactam N-7), the tissue uptake at 1 h [1, 5] is reported as 3.48 %ID/g, the tissue uptake at 1 h [1, 6] is reported as 7.4 %ID/g and the tissue uptake at 1 h [1, 7] is reported as 0.16 %ID/g. For the same molecule, the tissue uptake at 1 h [1, 8] was 0.25 %ID/g, the tissue uptake at 1 h [1, 9] was 0.01 %ID/g and the tissue uptake at 1 h [1, 10] was 0.02 %ID/g. For the same molecule, the tissue uptake at 1 h [1, 11] was 0.05 %ID/g, the tissue uptake at 1 h [1, 12] was 0.1 %ID/g and the tissue uptake at 1 h [1, 13] was 0.49 %ID/g. For the same molecule, the tissue uptake at 1 h [1, 14] was 0.53 %ID/g, the tissue uptake at 1 h [1, 15] was 0.22 %ID/g and the tissue uptake at 1 h [1, 16] was 0.46 %ID/g. It also gave a tissue uptake at 1 h [1, 17] of 0.62 %ID/g, a tissue uptake at 1 h [1, 18] of 0.81 %ID/g and a tissue uptake at 1 h [1, 19] of 0.09 %ID/g. The tissue uptake at 1 h [1, 20] was 0.19 %ID/g, the tissue uptake at 1 h [1, 21] was 0.12 %ID/g and the tissue uptake at 1 h [1, 22] was 0.25 %ID/g. It also gave a tissue uptake at 1 h [1, 23] of 0.07 %ID/g, a tissue uptake at 1 h [1, 24] of 0.14 %ID/g and a tissue uptake at 1 h [1, 25] of 0.2 %ID/g. For the same molecule, the tissue uptake at 1 h [1, 26] was 0.34 %ID/g, the tissue uptake at 1 h [1, 27] was 0.49 %ID/g and the tissue uptake at 1 h [1, 28] was 0.53 %ID/g. It also gave a tissue uptake at 1 h [1, 29] of 0.05 %ID/g, a tissue uptake at 1 h [1, 30] of 0.12 %ID/g and a tissue uptake at 1 h [1, 31] of 0.16 %ID/g. The tissue uptake at 1 h [1, 32] was 0.2 %ID/g, the tissue uptake at 1 h ([1]; tumor (GRANTA519 xenograft), 1 h, read-out: Biodistribution GRANTA519 (tumor)) was 5.5 %ID/g and the tissue uptake at 1 h ([1]; tumor (GRANTA519 xenograft), 1 h blocked (7.5 μg LY2510924 i.p.), read-out: Biodistribution GRANTA519 (tumor)) was 0.72 %ID/g. For the same molecule, the tissue uptake at 1 h ([1]; whole blood, 1 h, read-out: Biodistribution Blood) was 0.41 %ID/g, the tissue uptake at 1 h ([1]; whole blood, 1 h blocked (7.5 μg LY2510924 i.p.), read-out: Biodistribution Blood) was 0.83 %ID/g and the “Ratio Tumor: Blood” value ([2]; 1 h) was 13.83. For the same molecule, the “Ratio Tumor: Bone” value ([2]; 1 h) was 45.39, the “Ratio Tumor: Liver” value ([2]; 1 h) was 11.28 and the “Ratio Tumor: Lung” value ([2]; 1 h) was 9.12. The “Ratio Tumor: Muscle” value ([2]; 1 h) was 83.17, the “Ratio Tumor: Spleen” value ([2]; 1 h) was 15.86 and the “Ratio Tumor: Blood” value [2, 33] was 0.94. The “Ratio Tumor: Bone” value [2, 33] was 4.27, the “Ratio Tumor: Liver” value [2, 33] was 1.37 and the “Ratio Tumor: Lung” value [2, 33] was 0.96. For the same molecule, the “Ratio Tumor: Muscle” value [2, 33] was 5.36, the “Ratio Tumor: Spleen” value [2, 33] was 1.78 and the tissue uptake at 1 h ([3]; Z138 tumor, 1 h, read-out: Biodistribution Z138 (tumor)) was 12.9 %ID/g. For the same molecule, the tissue uptake at 1 h ([3]; Z138 tumor, 1 h blocked (7.5 μg LY2510924 i.p.), read-out: Biodistribution Z138 (tumor)) was 2.86 %ID/g, the tissue uptake at 1 h [3, 5] was 0.14 %ID/g and the tissue uptake at 1 h [3, 6] was 0.59 %ID/g. It also gave a tissue uptake at 1 h ([3]; blood, 1 h, read-out: Biodistribution Blood) of 0.3 %ID/g, a tissue uptake at 1 h ([3]; blood, 1 h blocked (7.5 μg LY2510924 i.p.), read-out: Biodistribution Blood) of 0.83 %ID/g and a tissue uptake at 1 h [3, 7] of 0.08 %ID/g. The tissue uptake at 1 h [3, 8] was 0.2 %ID/g, the tissue uptake at 1 h [3, 9] was 0.01 %ID/g and the tissue uptake at 1 h [3, 10] was 0.02 %ID/g. The tissue uptake at 1 h [3, 11] was 0.04 %ID/g, the tissue uptake at 1 h [3, 12] was 0.14 %ID/g and the tissue uptake at 1 h [3, 13] was 0.11 %ID/g. For the same molecule, the tissue uptake at 1 h [3, 14] was 0.24 %ID/g, the tissue uptake at 1 h [3, 15] was 0.19 %ID/g and the tissue uptake at 1 h [3, 16] was 0.61 %ID/g. It also gave a tissue uptake at 1 h [3, 17] of 3.48 %ID/g, a tissue uptake at 1 h [3, 18] of 7.86 %ID/g and a tissue uptake at 1 h [3, 19] of 0.48 %ID/g. It also gave a tissue uptake at 1 h [3, 20] of 0.55 %ID/g, a tissue uptake at 1 h [3, 21] of 0.5 %ID/g and a tissue uptake at 1 h [3, 22] of 0.85 %ID/g. It also gave a tissue uptake at 1 h [3, 23] of 0.05 %ID/g, a tissue uptake at 1 h [3, 24] of 0.15 %ID/g and a tissue uptake at 1 h [3, 25] of 0.08 %ID/g. It also gave a tissue uptake at 1 h [3, 26] of 0.21 %ID/g, a tissue uptake at 1 h [3, 27] of 0.33 %ID/g and a tissue uptake at 1 h [3, 28] of 0.43 %ID/g. The tissue uptake at 1 h [3, 29] was 0.07 %ID/g, the tissue uptake at 1 h [3, 30] was 0.16 %ID/g and the tissue uptake at 1 h [3, 31] was 0.11 %ID/g. The tissue uptake at 1 h [3, 32] was 0.26 %ID/g, the “Ratio Tumor: Blood” value ([4]; 1 h) was 43.12 and the “Ratio Tumor: Bone” value ([4]; 1 h) was 163.06. The “Ratio Tumor: Liver” value ([4]; 1 h) was 26.89, the “Ratio Tumor: Lung” value ([4]; 1 h) was 26.39 and the “Ratio Tumor: Muscle” value ([4]; 1 h) was 240.96. The “Ratio Tumor: Spleen” value ([4]; 1 h) was 39.22, the “Ratio Tumor: Blood” value [4, 33] was 3.94 and the “Ratio Tumor: Bone” value [4, 33] was 19.08. The “Ratio Tumor: Liver” value [4, 33] was 5.23, the “Ratio Tumor: Lung” value [4, 33] was 3.65 and the “Ratio Tumor: Muscle” value [4, 33] was 21.59. The “Ratio Tumor: Spleen” value [4, 33] was 7.40.
